Experimental data: US20030134779A1, “Method and composition for treatment and/or prevention of antibiotic-resistant microorganism infections” (priority 2002, published 2003)
Like-named read-outs stand apart in the source and are kept apart here.

Columns and labels:
Format in all cases: cell-based, Staphylococcus aureus
S. aureus 2076 = experiment: MIC of penicillin G alone or with bovine LF, macrodilution; details: strain β-lactamase +A, read-out: MICs of penicillin G
Excerpt: (§1) Staphylococcus aureus strains ATCC 25923 and 6538 and Escherichia coli ATCC 25922 were obtained from the American Type Culture Collection. Eight bovine mastitis clinical isolates of S. aureus (SHY97-3906, -3923, -4085 -4242, -4320 and -4343, RFT-1 and RFT-5) and one isolate of E. coli SHY97-3923-2 and one isolate of Kiebsiella pneumoniae SHY99-723-1 were kindly provided by the Laboratoire Provincial de Pathologie Animale of St-Hyacinthe and of Rock-Forest (Quebec, Canada), respectively. Nine β-lactam antibiotics resistant S. aureus strains (PC-1, NCTC 9789, 2076, 22260, ST79/741, 3804, RN9, FAR8, and FAR10) were obtained from Vanderbilt University School of Medicine (Nashville, Tenn., USA). All the culture media were from Difco Laboratories (Detroit, Mich.). Bacteria from frozen stock at −80° C. were streaked onto tryptic soy agar plates suplemented with 5% of defibrinated sheep blood (Quelab, Montreal, QC, Canada) or Brain Heart infusion agar plates. Plates were then incubated for 16 to 24 h at 37° C. For most experiments, the strains were subcultured onto Mueller Hinton agar plates (MHA) or broth (MHB) for an additional 16-20 h. Aqueous solutions of the tested products were added by filtration through a sterile filter assembly (pore size 0.2 μm, Fisher, Ottawa, Ontario).
(§2) The MICs were determined by both macrodilution (1 ml/tube) and microdilution (100 μl/well) in sterile 96 well microtiter plates (International Nunc, Napierville, Ill.) techniques in three separate experiments according to the National Committee for Clinical Laboratory Standards (1992 and 1999) in three separate experiments. Serial 2-fold dilutions in MHB of LF, LFC, antibiotic or combination of LF or LFC with antibiotic were inoculated with an overnight culture at a final inoculum of 10^6 cfu/ml in MHB. Effect of LF combination with antibiotic on MICs were determined by adding 0.5 mg or 1 mg/ml of LF to each antibiotic dilution. The MIC was defined as the lowest concentration of drug (highest dilution) that caused a complete inhibition of bacterial growth after an incubation of 18 h. Effect of LF or LFC combination with antibiotic on MIC was also determined by checkerboard method using 96 well microtiter plates. Each antibiotic dilution (50 μl) was serially added to the wells in vertical rows starting from the top (lower dilution) to the bottom. Lactoferrin or LFC (50 μl) were added to 50 μl of each antibiotic dilution and serially diluted starting at the left (lower dilution) to the right. After inoculation, the final concentration of antibiotic from top to bottom were 32 to 8, 2 to 0.5, 0.5 to 0.125 μg/ml for penicillin, cefazolin and neomycin, respectively. From left to right, the concentration of LF or LFC were 25 to 0.0244 mg/ml or 256 to 0.5 μg/ml respectively in a final volume of 100 μl/well. The microplate's were incubated at 37° C. for 24 h. Bacterial growth was measured optically at 540 nm using Spectra Max 250 Microplate Spectrophotometer System of Molecular Device (Fisher Scientific, Ottawa, Canada). Tubes were incubated at 37° C. for 18 h and bacterial growth was measured by visual examination and optically at 540 nm using a spectrophotometer (Philips PU 8800; Pye Unican Ltd, Cambridge, UK). The fractional inhibitory concentration (FIC) was calculated as described by Eliopoulos and Moellering (1991).

S. aureus 22260 = experiment: as above; details: strain β-lactamase +B, read-out: MICs of penicillin G
Excerpt: as §1, §2

S. aureus PC-1 = experiment: Cell morphology by transmission electron microscopy; details: penicillin G 8 μg/ml alone; 4-h
Experimental: Bacterial cells were grown overnight on MHA or MHB containing sub-MICs of penicillin G with or without LF or LFC. Microorganisms were prepared for transmission electron microscopy by fixation with glutaraldehyde followed by ferritin labelling. This method allows good- preservation of capsular material. Briefly, bacterial cells grown in the presence or absence of antibiotics were fixed in cacodylate buffer (0.1 M, pH 7.0) containing 5% (v/v) glutaraldehyde, for 2 h at 20° C. Fixed microorganims were suspended in cacodylate buffer and allowed to react with the polycationic ferritin (Sigma Chemicals, St-Louis, Mo.; final concentration 1.0 mg/ml) for 30 min at 20° C. The reaction was slowed down by 10-fold dilution with buffer, and the microorganisms were centrifuged and washed three times in cacodylate buffer. Bacterial cells were then immobilized in 4% (w/v) agar, washed 5 times in cacodylate buffer and post-fixed with 2% (w/v) osmium tetroxide for 2 h. Washings were repeated as above, and the samples dehydrated in a graded series of acetone washes. Samples were then washed twice in propylene oxide and embedded in Spurr low-viscosity resin. Thin sections were post-stained with uranyl acetate and lead citrate and examined with an electron microscope (Philips 201) at an accelerating voltage of 60 kV.
Bacterial cells of PC-1 (a constitutively high producing β-lactamase strain) were grown overnight in MHB containing 8 μg/ml of penicillin G, 16 μg/ml of LFC alone or in combination for 4-h at 37° C. with agitation at 150 rpm. Bacteria cell morphology was evaluated by transmission electron microscopy after fixation and ferritin labelling method as previously described.

S. aureus SHY97-4320 = experiment: SDS-PAGE protein profile of whole cells; details: compound alone: 8 μg/ml penicillin G or 1 mg/ml LF; 4-h of growth
Experimental: Staphylococcus aureus SHY97-4320 cells growth in MHB containing test compounds were suspended in electrophoresis sample buffer containing 2% sodium dodecyl sulfate (SDS) and 5% 2-mercaptoethanol to a final concentration of 0.1 g per ml. The samples were heated to 100° C. for 5 min before being loaded for electrophoresis on a discontinuous 0.1% SDS-polyacrylamide gel (SDS PAGE) with 6% polyacrylamide stacking gel and 10 or 12% polyacrylamide running gel. Gels were run on a Mini-Protean® II apparatus (Bio Rad laboratories, Richmond, Calif.). Protein profiles were visualised by staining with coomassie brilliant blue R-250 or by silver staining.

CC1(C)S[C@@H]2[C@H](NC(=O)Cc3ccccc3)C(=O)N2[C@H]1C(=O)O [penicillin G, Penicillin G]
MIC (S. aureus 2076; Staphylococcus aureus, 2076, +0.5 mg/ml LF): 0.25 µg/mL | MIC (S. aureus 2076; Staphylococcus aureus, 2076, +1 mg/ml LF): 0.25 µg/mL | MIC (S. aureus 2076; Staphylococcus aureus, 2076, Alone): 0.5 µg/mL | MIC (S. aureus 22260; Staphylococcus aureus, 22260, +0.5 mg/ml LF): 16 µg/mL | MIC (S. aureus 22260; Staphylococcus aureus, 22260, +1 mg/ml LF): 16 µg/mL | MIC (S. aureus 22260; Staphylococcus aureus, 22260, Alone): 32 µg/mL | cell morphology (S. aureus PC-1): no effects on morphology | proteins of approximately 59, 42 and 27 kDa in protein profile (S. aureus SHY97-4320): can be seen
